Assay results published in ChEMBL document CHEMBL1124085, “Flavins as potential antimalarials. 1. 10-(Halophenyl)-3-methylflavins” (1988).

Legend:
Mus musculus [1] = test: Parenteral antimalarial activity against Plasmodium vinckei vinckei in mice (Mus musculus) measured as % cured and increase in MST (days) at 15 mg/kg dose; format: functional
Mus musculus [2] = test: Parenteral antimalarial activity against Plasmodium vinckei in mice (Mus musculus) measured as % cured and increase in MST (days) at 20 mg/kg dose; format: functional
Mus musculus [3] = test: Parenteral antimalarial activity against Plasmodium vinckei in mice (Mus musculus) measured as % cured and increase in MST (days) at 25 mg/kg dose; format: functional
Mus musculus [4] = test: Oral antimalarial activity against Plasmodium vinckei in mice (Mus musculus) measured as % cured and increase in MST (days) at 25 mg/kg dose; format: functional
Mus musculus [5] = test: Oral antimalarial activity against Plasmodium vinckei vinckei in mice (Mus musculus) measured as % cured and increase in MST (days) at 50 mg/kg dose; format: functional
Mus musculus [6] = test: Oral antimalarial activity against Plasmodium vinckei in mice (Mus musculus) measured as % cured and increase in MST (days) at 75 mg/kg dose; format: functional
Mus musculus [7] = test: Parenteral antimalarial activity against Plasmodium vinckei in mice (Mus musculus) measured as % cured and increase in MST (days) at 10 mg/kg dose; format: functional
Mus musculus [8] = test: Oral antimalarial activity against Plasmodium vinckei vinckei in mice (Mus musculus) measured as % cured and increase in MST (days) at 100 mg/kg dose; format: functional
Mus musculus [9] = test: Oral antimalarial activity against Plasmodium vinckei vinckei in mice (Mus musculus) measured as % cured and increase in MST (days) at 150 mg/kg dose; format: functional
Mus musculus [10] = test: Parenteral antimalarial activity against Plasmodium vinckei in mice (Mus musculus) measured as increase in mean survival time at 20 mg/kg dose; Toxic; format: functional
Mus musculus [11] = test: Parenteral antimalarial activity against Plasmodium vinckei in mice (Mus musculus) measured as increase in mean survival time at 25 mg/kg dose; Toxic; format: functional
Mus musculus [12] = test: Parenteral antimalarial activity against Plasmodium vinckei in mice (Mus musculus) measured as increase in mean survival time at 10 mg/kg dose; format: functional
Mus musculus [13] = test: Parenteral antimalarial activity against Plasmodium vinckei in mice (Mus musculus) measured as increase in mean survival time at 15 mg/kg dose; format: functional
Mus musculus [14] = test: Oral antimalarial activity against Plasmodium vinckei in mice (Mus musculus) measured as increase in mean survival time at 100 mg/kg dose; format: functional
Mus musculus [15] = test: Oral antimalarial activity against Plasmodium vinckei in mice (Mus musculus) measured as increase in mean survival time at 150 mg/kg dose; format: functional
Mus musculus [16] = test: Oral antimalarial activity against Plasmodium vinckei in mice (Mus musculus) measured as increase in mean survival time at 25 mg/kg dose; format: functional
Mus musculus [17] = test: Oral antimalarial activity against Plasmodium vinckei vinckei in mice (Mus musculus) measured as increase in mean survival time at 50 mg/kg dose; format: functional
Mus musculus [18] = test: Oral antimalarial activity against Plasmodium vinckei vinckei in mice (Mus musculus) measured as increase in mean survival time at 75 mg/kg dose; format: functional
Mus musculus [19] = test: Parenteral antimalarial activity against Plasmodium vinckei vinckei in mice (Mus musculus) measured as % cured and increase in MST (days) at 25 mg/kg dose.; format: functional
Mus musculus [20] = test: Parenteral antimalarial activity against Plasmodium vinckei in mice (Mus musculus) measured as % cured and increase in MST (days) at 15 mg/kg dose.; format: functional
Mus musculus [21] = test: Parenteral antimalarial activity against Plasmodium vinckei vinckei in mice (Mus musculus) measured as % cured and increase in MST (days) at 20 mg/kg dose.; format: functional
Mus musculus [22] = test: Oral antimalarial activity against Plasmodium vinckei in mice (Mus musculus) measured as % cured and increase in MST (days) at 25 mg/kg dose.; format: functional
Mus musculus [23] = test: Oral antimalarial activity against Plasmodium vinckei in mice (Mus musculus) measured as % cured and increase in MST (days) at 50 mg/kg dose.; format: functional
Mus musculus [24] = test: Oral antimalarial activity against Plasmodium vinckei in mice (Mus musculus) measured as % cured and increase in MST (days) at 75 mg/kg dose.; format: functional
Mus musculus [25] = test: Parenteral antimalarial activity against Plasmodium vinckei vinckei in mice (Mus musculus) measured as % cured and increase in MST (days) at 10 mg/kg dose.; format: functional
Mus musculus [26] = test: Oral antimalarial activity against Plasmodium vinckei vinckei in mice (Mus musculus) measured as % cured and increase in MST (days) at 100 mg/kg dose.; format: functional
Mus musculus [27] = test: Oral antimalarial activity against Plasmodium vinckei vinckei in mice (Mus musculus) measured as % cured and increase in MST (days) at 150 mg/kg dose.; format: functional
Mus musculus [28] = test: Oral antimalarial activity against Plasmodium vinckei in mice (Mus musculus) measured as increase in mean survival time at 25 mg/kg dose.; format: functional
Mus musculus [29] = test: Parenteral antimalarial activity against Plasmodium vinckei in mice (Mus musculus) measured as % cured and increase in MST (days) at 30 mg/kg dose.

Cn1c(=O)nc2n(-c3ccccc3Cl)c3ccccc3nc-2c1=O
Cured (Mus musculus [1]): 0% | Cured (Mus musculus [2]): 0% | Cured (Mus musculus [3]): 0% | Cured (Mus musculus [4]): 0% | Cured (Mus musculus [5]): 0% | Cured (Mus musculus [6]): 0% | Cured (Mus musculus [7]): 0% | Cured (Mus musculus [8]): 0% | Cured (Mus musculus [9]): 0% | MST (Mus musculus [10]): -0.2 days | MST (Mus musculus [11]): -1.4 days | MST (Mus musculus [12]): 0 days | MST (Mus musculus [13]): 0 days | MST (Mus musculus [14]): 0 days | MST (Mus musculus [15]): 0 days | MST (Mus musculus [16]): 0 days | MST (Mus musculus [17]): 0 days | MST (Mus musculus [18]): 0 days

Cn1c(=O)nc2n(-c3cc(Cl)cc(Cl)c3)c3ccccc3nc-2c1=O
Cured (Mus musculus [19]): 100% | Cured (Mus musculus [20]): 100% | Cured (Mus musculus [21]): 100% | Cured (Mus musculus [22]): 60% | Cured (Mus musculus [23]): 100% | Cured (Mus musculus [24]): 100% | Cured (Mus musculus [25]): 100% | Cured (Mus musculus [26]): 100% | Cured (Mus musculus [27]): 100% | MST (Mus musculus [28]): 3.5 days | Cured (Mus musculus [29]): 100%
